# Columns and labels:
# RAW 264.7 cells = assay: TNF release from RAW 264.7 cells stimulated with HMGB1, mutants or B box peptides (L929 cytotoxicity bioassay); assay type: cell-based, murine; settings: for TNF release by synthetic B box peptide fragments: synthetic peptide 10 μg/ml, 10 hours (FIG. 3)
# Description: Murine macrophage-like RAW 264.7 cells (American Type Culture Collection, Rockville, Md.) were cultured in RPMI 1640 medium (Life Technologies, Grand Island, N.Y.) supplemented with 10% fetal bovine serum (Gemini, Catabasas, Calif.), penicillin and streptomycin (Life Technologies) and were used at 90% confluence in serum-free Opti-MEM I medium (Life Technologies, Grand Island, N.Y.). […] Polymyxin B was not used in experiments of synthetic peptide studies.
# TNF release was measured by a standard murine fibroblast L929 (ATCC, American Type Culture Collection, Rockville, Md.) cytotoxicity bioassay (Bianchi et al., Journal of Experimental Medicine 183:927-936, 1996) with the minimum detectable concentration of 30 pg/ml. Recombinant mouse TNF was obtained from R&D system Inc., (Minneapolis, Minn.). Murine fibroblast L929 cells (ATCC) were cultured in DMEM (Life Technologies, Grand Island, N.Y.) supplemented with 10% fetal bovine serum (Gemini, Catabasas, Calif.), penicillin (50 units/ml) and streptomycin (50 μg/ml) (Life Technologies) in a humidified incubator with 5% CO2.
# The effect of the mutants on TNF release from Murine macrophage-like RAW 264.7 cells (ATCC) was carried out as follows. RAW 264.7 cells were cultured in RPMI 1640 medium (Life Technologies, Grand Island, N.Y.) supplemented with 10% fetal bovine serum (Gemini, Catabasas, Calif.), penicillin and streptomycin (Life Technologies). Polymyxin (Sigma, St. Louis, Mo.) was added at 100 units/ml to suppress the activity of any contaminating LPS. Cells were incubated with 1 μg/ml of full length (wild-type) HMGB1 and each HMGB1 mutant protein in Opti-MEM I medium for 8 hours. Conditioned supernatants (containing TNF which had been released from the cells) were collected and TNF released from the cells was measured by a standard murine fibroblast L929 (ATCC) cytotoxicity bioassay (Bianchi et al., supra) with the minimum detectable concentration of 30 pg/ml. Recombinant mouse TNF was obtained from R & D Systems Inc., (Minneapolis, Minn.) and used as control in these experiments. Data in FIG. 1 are all presented as mean±SEM unless otherwise indicated. (N=6−10).
# To further examine the effect of HMGB1 B box on cytokine production, varying amounts of HMGB1 B box were evaluated for the effects on TNF, IL-1B, and IL-6 production in murine macrophage-like RAW 264.7 cells. Conditioned media were harvested and measured for TNF, IL-1β and IL-6 levels. TNF levels were measured as described herein, and IL-1β and IL-6 levels were measured using the mouse IL-1β and IL-6 enzyme-linked immunosorbent assay (ELISA) kits (R&D System Inc., Minneapolis, Minn.) and N>5 for all experiments.
# The kinetics of B box-induced TNF release were also examined. TNF release and TNF mRNA expression were measured in RAW 264.7 cells induced by B box polypeptide or GST tag polypeptide only (used as a control (vector)) (10 μg/ml) for 0 to 48 hours. Supernatants were analyzed for TNF protein levels by an L929 cytotoxicity assay (N=3-5) as described herein. For mRNA measurement, cells were plated in 100 mm plates and treated in Opti-MEM I medium containing B box polypeptide or the vector alone for 0, 4, 8, or 24 hours, as indicated in FIG. 2D. The vector only sample was assayed at the 4 hour time point. Cells were scraped off the plate and total RNA was isolated using the RNAzol B method in accordance with the manufacturer's instructions (Tel-Test “B”, Inc., Friendswood, Tex.). TNF (287 bp) was measured by RNase protection assay (Ambion, Austin, Tex.). Equal loading and the integrity of RNA was verified by ethidium bromide staining of the RNA sample on an agarose-formaldehyde gel. […] TNF mRNA expression was maximal at 4 hours and decreased at 8 and 24 hours. […] A similar study was carried out measuring TNF protein released from RAW 264.7 cells 0, 4, 8, 24, 32 or 48 hours after administration of B box or vector only (GST tag), using the L929 cytotoxicity assay described herein. […]
# [1] = target: Recombinant full length human HMGB1 (wild type HMGB1) (human); assay: cell-based or functional assay
# [2] = target: RAGE on RAW 264.7 cells (mouse (murine RAW 264.7 cells)) (UniProt Q62151); assay: cell-based or functional assay
# RAGE on RAW 264.7 cells (mouse (murine RAW 264.7 cells)), sequence (Q62151 23-402): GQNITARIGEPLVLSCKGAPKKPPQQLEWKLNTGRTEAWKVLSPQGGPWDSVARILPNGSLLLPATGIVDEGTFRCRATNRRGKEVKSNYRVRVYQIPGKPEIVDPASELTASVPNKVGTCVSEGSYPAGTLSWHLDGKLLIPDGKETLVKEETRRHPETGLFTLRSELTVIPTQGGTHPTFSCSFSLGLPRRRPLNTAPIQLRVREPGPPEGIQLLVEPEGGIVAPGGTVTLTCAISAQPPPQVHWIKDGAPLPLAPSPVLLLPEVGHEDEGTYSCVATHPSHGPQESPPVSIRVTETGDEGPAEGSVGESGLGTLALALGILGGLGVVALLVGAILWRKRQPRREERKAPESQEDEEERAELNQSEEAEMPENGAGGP
# [3] = test system: HMGB1 induced TNF release; assay: A box inhibition of HMGB1 induced TNF release from RAW 264.7 cells; assay type: cell-based, murine; settings: co-addition with HMGB1, 16 hours, TNF ELISA (FIG. 4B)
# Description: Weak agonists are by definition antagonists. […] This study was carried out as follows. Sub-confluent RAW 264.7 cells in 24-well dishes were treated with HMGB1 (1 μg/ml) and 0, 5, 10, or 25 μg/ml of A box for 16 hours in Opti-MEM I medium in the presence of polymyxin B (100 units/ml). The TNF-stimulating activity (assayed using the L929 cytotoxicity assay described herein) in the sample receiving no A box was expressed as 100%, and the inhibition by A box was expressed as percent of HMGB1 alone. […] Data in FIG. 4A are presented as mean±SD (n=2-3 independent experiments).
# Antagonism of full length HMGB1 activity by HMGB1 A box or GST tag (vector control) was also determined by measuring TNF release from RAW 264.7 macrophage cultures stimulated by co-addition of A box with full length HMGB1. RAW 264.7 macrophage cells (ATCC) were seeded into 24-well tissue culture plates and used at 90% confluence. The cells were treated with HMGB1, and/or A boxes as indicated for 16 hours in Optimum I medium (Life Technologies, Grand Island, N.Y.) in the presence of polymyxin B (100 units/ml, Sigma, St. Louis, Mo.) and supernatants were collected for TNF measurement (mouse ELISA kit from R&D System Inc, Minneapolis, Minn.). TNF-inducing activity was expressed as a percentage of the activity achieved with HMGB1 alone. […]
# [4] = test system: Balb/c mice subjected to CLP; assay: Cecal ligation and puncture (CLP) sepsis, survival of Balb/c mice; assay type: in vivo
# Description: Cecal ligation and puncture (CLP) was performed as described previously (Fink and Heard, J. Surg. Res. 49:186-196, 1990; Wichmann et al., Crit. Care Med. 26:2078-2086, 1998; and Remick et al., Shock 4:89-95, 1995). Briefly, Balb/c mice were anesthetized with 75 mg/kg ketamine (Fort Dodge, Fort Dodge, Iowa) and 20 mg/kg of xylazine (Bohringer Ingelheim, St. Joseph, Mo.) intramuscularly. A midline incision was performed, and the cecum was isolated. A 6-0 prolene suture ligature was placed at a level 5.0 mm from the cecal tip away from the ileocecal valve.
# The ligated cecal stump was then punctured once with a 22-gauge needle, without direct extrusion of stool. The cecum was then placed back into its normal intra-abdominal position. […] Mortality was recorded for up to 1 week after the procedure; survivors were followed for 2 weeks to ensure no late mortalities had occurred.
# To determine whether the HMGB1 A box can inhibit the lethality of HMGB1 during sepsis, mice were subjected to cecal perforation and treated by administration of A box beginning 24 hours after the onset of sepsis. […] Survival was monitored twice daily for up to 2 weeks to ensure no late death occurred. […]
# Passive immunization of critically ill septic mice with anti-HMGB1 antibodies was also assessed. […] Survival was monitored for 2 weeks. […]
molecule,measurement,setting,value
16-25: Synthetic peptide fragment containing amino acids 16-25 of the HMGB1 B box (SEQ ID NO:20) (LFCSEYRPKI; listed as Homo sapiens),TNF release by synthetic B box peptide fragments,RAW 264.7 cells,did not induce TNF release
30-49: Synthetic peptide fragment containing amino acids 30-49 of the HMGB1 B box (SEQ ID NO:20) (PGLSIGDVAKKLGEMWNNTA; listed as Homo sapiens),TNF release by synthetic B box peptide fragments,RAW 264.7 cells,did not induce TNF release
45-64: Synthetic peptide fragment containing amino acids 45-64 of the HMGB1 B box (SEQ ID NO:20) (WNNTAADDKQPYEKKAAKLK; listed as Homo sapiens),TNF release by synthetic B box peptide fragments,RAW 264.7 cells,did not induce TNF release
60-74: Synthetic peptide fragment containing amino acids 60-74 of the HMGB1 B box (SEQ ID NO:20) (AAKLKEKYEKDIAAY; listed as Homo sapiens),TNF release by synthetic B box peptide fragments,RAW 264.7 cells,did not induce TNF release
HMGB1 Amino terminus+A box mutant (human HMGB1 A box polypeptide) (from UniProt A9RA84 1-85),"inhibition of HMGB1 (1 µg/ml) induced TNF release from RAW 264.7 cells, L929 cytotoxicity assay",[1],7.5 µg/mL
Recombinant full length human HMGB1 (wild type HMGB1) (from UniProt A9RA84 1-215) (ligand),decrease of HMGB1 (1 µg/ml) induced TNF release from RAW 264.7 cells by anti-RAGE antibody (25 µg/ml),[2],40%
fkdpnapkrlpsafflfcse (FKDPNAPKRLPSAFFLFCSE; listed as Homo sapiens) [1-20-mer],TNF stimulating potency compared with full length B box and HMGB1,"RAW 264.7 cells; peptide 10 μg/ml vs B box 1 μg/ml, 10 hours","less potent than either the full length synthetic B box (1-74-mer), or full length HMGB1"
same,TNF release by synthetic B box peptide fragments,RAW 264.7 cells,TNF-stimulating activity was retained
"A box: Human HMGB1 mutant containing only the A box, SEQ ID NO:21 (A box SEQ ID NO:22) (protein, listed as Homo sapiens) MGKGDPKKPTGKMSSYAFFVQTCREEHKKKHPDASVNFSEFSKKCSERWKTMSAKEKGKFEDMAKADKARYEREMKTYIPPKGET",effect on TNF stimulating activity of full length HMGB1,[3],significantly attenuated the TNF stimulating activity of full length HMGB1
same,outcome of animals,[4]; 60 μg/mouse,most died
same,clinical behaviour of animals,"[4]; 600 μg/mouse, vs vector controls or 60 μg","significantly more alert, active, and to resume feeding behavior"

# Source: patent US20040156851A1, “HMGB1 combination therapies” (Critical Therapeutics, Inc., priority 2002, published 2004)
